Measurements as given in patent US11839216B1, “Quinoline-2,3-fused nine-membered ring scaffold compound, and preparation method and application thereof as effective component in plant fungicide” (QINGDAO AGRICULTURAL UNIVERSITY, priority 2022, dated 2023).

Key:
Experiment in all cases: antibacterial activity by mycelial growth rate method
Type in all cases: cell-based
[1] = tested on: V. mali; conditions: Cytospora mali; for inhibition at 25 µg/mL: 25 mg/L; for inhibition at 50 µg/mL: 50 mg/L; for inhibition at 100 µg/mL: 100 mg/L
Protocol: (§1) Five common strains of C. gloeosporioides, V. mali, F. oxysporum, B. cinerea and G. graminis were selected, and the antibacterial activity of the compounds was tested by a mycelial growth rate method (Ann. Appl. Biol., 2008, 152, 369). The above strains for test were provided by Shangdong Biopesticide Engineering Research Center. Firstly, a certain amount of potato dextrose agar (PDA) was weighed and placed in a wide neck flask, distilled water was added to the wide-necked flask, to prepare a culture medium, and the culture medium was placed in an autoclave for sterilization at 120° C. for half an hour. 1 mg of drugs to be tested were weighed and dissolved in 10 mL of acetone to prepare 100 mg/L of agents, a half of agents therein were taken and diluted with the acetone to 10 mL to prepare 50 mg/L of agents, and 25 mg/L, 12.5 mg/L and 6.25 mg/L of agents might be prepared in such way. 5 mL of agents therein were taken and poured into 50 mL of potato dextrose agar for uniform mixing, and then the mixtures were poured into 5 culture media sterilized at high temperature respectively. The five pathogens were inoculated with inoculation loops respectively after cooling, sealed with sealing films and transferred to a proper temperature for observation. When colonies in the control group without the agents reached […], the colonies in the experimental groups were measured by a cross intersection method according to the following formula: Inhibition rate=(colony diameter of the control group−colony diameter of the experimental groups)/colony diameter of the control group×[…]

[2] = tested on: G. graminis; conditions: Gaeumannomyces graminis; for inhibition at 25 µg/mL: 25 mg/L; for inhibition at 50 µg/mL: 50 mg/L; for inhibition at 100 µg/mL: 100 mg/L
Protocol: as §1

[3] = tested on: B. cinerea; conditions: Botrytis cinerea; for inhibition at 25 µg/mL: 25 mg/L; for inhibition at 50 µg/mL: 50 mg/L; for inhibition at 100 µg/mL: 100 mg/L
Protocol: as §1

[4] = tested on: F. oxysporum; conditions: Fusarium oxysporum; for inhibition at 25 µg/mL: 25 mg/L; for inhibition at 50 µg/mL: 50 mg/L; for inhibition at 100 µg/mL: 100 mg/L
Protocol: as §1

[5] = tested on: C. gloeosporioides; conditions: Colletotrichum gloeosporioides; for inhibition at 25 µg/mL: 25 mg/L; for inhibition at 50 µg/mL: 50 mg/L; for inhibition at 100 µg/mL: 100 mg/L
Protocol: as §1

## Cc1ccc(CN2Cc3cc4ccccc4nc3CC3CCCN3c3cc(Cl)ccc32)cc1 (stereo not drawn) [Compound 5]
[1]
  inhibition at 25 µg/mL: ≤ 100%
  inhibition at 50 µg/mL: 100%
  inhibition at 100 µg/mL: 100%
[2]
  inhibition at 25 µg/mL: 35.9%
  inhibition at 50 µg/mL: 51.9%
  inhibition at 100 µg/mL: 75.1%
[3]
  inhibition at 25 µg/mL: ≤ 100%
  inhibition at 50 µg/mL: 100%
  inhibition at 100 µg/mL: 100%
[4]
  inhibition at 25 µg/mL: 100%
  inhibition at 50 µg/mL: 100%
  inhibition at 100 µg/mL: 100%
[5]
  inhibition at 25 µg/mL: 88.1%
  inhibition at 50 µg/mL: 100%
  inhibition at 100 µg/mL: 100%

## Fc1ccc(CN2Cc3cc4ccccc4nc3CC3CCCN3c3ccccc32)cc1 (stereo not drawn) [Compound 2]
[1]
  inhibition at 25 µg/mL: ≤ 100%
  inhibition at 50 µg/mL: 100%
  inhibition at 100 µg/mL: 100%
[2]
  inhibition at 25 µg/mL: 100%
  inhibition at 50 µg/mL: 100%
  inhibition at 100 µg/mL: 100%
[3]
  inhibition at 25 µg/mL: ≤ 100%
  inhibition at 50 µg/mL: 100%
  inhibition at 100 µg/mL: 100%
[4]
  inhibition at 25 µg/mL: 100%
  inhibition at 50 µg/mL: 100%
  inhibition at 100 µg/mL: 100%
[5]
  inhibition at 25 µg/mL: 92.4%
  inhibition at 50 µg/mL: 100%
  inhibition at 100 µg/mL: 100%

## COc1cccc(CN2Cc3cc4ccccc4nc3CC3CCCN3c3ccccc32)c1 (stereo not drawn) [Compound 4]
[1]
  inhibition at 25 µg/mL: ≤ 100%
  inhibition at 50 µg/mL: 100%
  inhibition at 100 µg/mL: 100%
[2]
  inhibition at 25 µg/mL: 61.2%
  inhibition at 50 µg/mL: 66.5%
  inhibition at 100 µg/mL: 100%
[3]
  inhibition at 25 µg/mL: ≤ 100%
  inhibition at 50 µg/mL: 100%
  inhibition at 100 µg/mL: 100%
[4]
  inhibition at 25 µg/mL: 100%
  inhibition at 50 µg/mL: 100%
  inhibition at 100 µg/mL: 100%
[5]
  inhibition at 25 µg/mL: 100%
  inhibition at 50 µg/mL: 100%
  inhibition at 100 µg/mL: 100%

## Cc1ccc(CN2Cc3cc4ccccc4nc3CC3CCCN3c3ccccc32)cc1 (stereo not drawn) [Compound 3]
[1]
  inhibition at 25 µg/mL: ≤ 100%
  inhibition at 50 µg/mL: 100%
  inhibition at 100 µg/mL: 100%
[2]
  inhibition at 25 µg/mL: 58.2%
  inhibition at 50 µg/mL: 62.1%
  inhibition at 100 µg/mL: 100%
[3]
  inhibition at 25 µg/mL: ≤ 100%
  inhibition at 50 µg/mL: 100%
  inhibition at 100 µg/mL: 100%
[4]
  inhibition at 25 µg/mL: 100%
  inhibition at 50 µg/mL: 100%
  inhibition at 100 µg/mL: 100%
[5]
  inhibition at 25 µg/mL: 100%
  inhibition at 50 µg/mL: 100%
  inhibition at 100 µg/mL: 100%

## Cc1ccc(CN2Cc3cc4cc(C(F)(F)F)ccc4nc3CC3CCCN3c3ccccc32)cc1 (stereo not drawn) [Compound 6]
[1]
  inhibition at 25 µg/mL: ≤ 100%
  inhibition at 50 µg/mL: 100%
  inhibition at 100 µg/mL: 100%
[2]
  inhibition at 25 µg/mL: 56.3%
  inhibition at 50 µg/mL: 100%
  inhibition at 100 µg/mL: 100%
[3]
  inhibition at 25 µg/mL: ≤ 100%
  inhibition at 50 µg/mL: 100%
  inhibition at 100 µg/mL: 100%
[4]
  inhibition at 25 µg/mL: 86.5%
  inhibition at 50 µg/mL: 100%
  inhibition at 100 µg/mL: 100%
[5]
  inhibition at 25 µg/mL: 74.6%
  inhibition at 50 µg/mL: 82.1%
  inhibition at 100 µg/mL: 100%

## c1ccc(CN2Cc3cc4ccccc4nc3CC3CCCN3c3ccccc32)cc1 (stereo not drawn) [Compound 1]
[1]
  inhibition at 25 µg/mL: ≤ 100%
  inhibition at 50 µg/mL: 100%
  inhibition at 100 µg/mL: 100%
[2]
  inhibition at 25 µg/mL: 36.9%
  inhibition at 50 µg/mL: 54.1%
  inhibition at 100 µg/mL: 68.9%
[3]
  inhibition at 25 µg/mL: ≤ 100%
  inhibition at 50 µg/mL: 100%
  inhibition at 100 µg/mL: 100%
[4]
  inhibition at 25 µg/mL: 49.3%
  inhibition at 50 µg/mL: 100%
  inhibition at 100 µg/mL: 100%
[5]
  inhibition at 25 µg/mL: 100%
  inhibition at 50 µg/mL: 100%
  inhibition at 100 µg/mL: 100%
